Reference: patent US20060009805A1, “Neural stimulation device employing renewable chemical stimulation” (priority 2004, published 2006)

How the values were obtained:
[1] = system: rabbit retinal ganglion cells; test: Single cell recordings from axons of retinal ganglion cells stimulated by focal ejection of K+ (KCl) from a micropipette; assay type: cell-based
Procedure: Single cell recordings were made from the axons of rabbit retinal ganglion cells in vitro. Data was recorded and analyzed using Spike2 (Cambridge Electronic Design). The ganglion cells were stimulated over the optical receptive field with a multibarrel micropipette (7-barrel, FHC, Inc.) which contained various concentrations of KCl (0-30 mM in an osmotically balanced NaCl solution (˜300 mOsm). The micropipette solutions were ejected by using a mulitchannel pressure ejector (PM8000, MDI Systems). All solutions contained Azure B (0.5 mg/ml) to enable visualization of the solution being ejected. Pulse durations of 20-100 msecs were used.
Response is shown for a cell stimulated with a 20 msec pulse of 10 mM K^+, pressure of 40 p.s.i. and a volume of approximately 100 pL. […] A modest increase (10 mM) in K^+ concentration increases the spike count from 35 to 80 spikes. Further increases in concentration to 15 mM and 30 mM increases the spike rate to 240 and 272 spikes, respectively. […] The histograms are summed responses from 10 trials as indicated by the raster plot.
Data was collected from 5 cells and the total spike count was obtained from the PSTH. The spontaneous activity (control record) was subtracted, divided by the number of repetitions and the median is plotted. The error bars shown are the standard deviations normalized by the median.
The large secondary lobe in the potassium response may be due to the fluid flow pattern that may have stimulated adjacent cells. Overall receptive field size is […] for a light evoked response.

[2] = cited from earlier work

[K+] [K^+]
overall receptive field size, potassium evoked response ([1]; 30 mM [K+]): 400 µm | receptive field size, primary lobe, potassium evoked response ([1]; 30 mM [K+]): 100 µm | increase in background K+ concentration sufficient to excite the firing of an action potential by retinal ganglion cells ([1]; rabbit retina, in vitro): ~10 mM | spike count (PSTH, summed responses from 10 trials) ([1]; representative cell, 10 mM K+, count without K+ increase 35): 80 spikes | spike count (PSTH, summed responses from 10 trials; given as spike rate) ([1]; representative cell, 15 mM K+): 240 spikes | spike count (PSTH, summed responses from 10 trials; given as spike rate) ([1]; representative cell, 30 mM K+): 272 spikes

O=C(O)[C@H](O)[C@@H](O)[C@H](O)[C@H](O)CO [Gluconic acid, gluconic acid]
pKa [2]: ~3.6
